From ChEMBL document CHEMBL4376833, “Influence of Non-natural Cationic Amino Acids on the Biological Activity Profile of Innate Defense Regulator Peptides” (J Med Chem, 2019)
≈ marks a conversion by molar mass, not a printed value. Calls of active or inactive are those of the source. Unless noted, the calls are words filed in the database; no cut-off is given here. Non-standard residues stand in square brackets, D forms with d. Residues, ends and D or L forms follow the SMILES beside them. Orn = NCCC[C@H](N)C(=O)O; Dap = NC[C@H](N)C(=O)O

Columns and labels:
[1] = Binding affinity to DPC micelle assessed as blue shift with maximum fluorescence emission at 1 uM in TRIS buffer at pH 7.4 measured after 24 hrs by Trp emission fluorescence spectroscopy
PBMC [2] = experiment: Proinflammatory activity in human PBMC assessed as increase in LPS-stimulated IL1 production at 40 uM incubated for overnight in presence of Pseudomonas aeruginosa PAO1 LPS by ELISA relative to control; assay type: cell-based
[3] = Binding affinity to SDS micelle assessed as increase in fluorescence emission intensity at maximum wavelength at 1 uM in TRIS buffer at pH 7.4 measured after 24 hrs by Trp emission fluorescence spectroscopy relative to TRIS buffer
Staphylococcus aureus [4] = experiment: Antibiofilm activity against methicillin-resistant Staphylococcus aureus assessed as inhibition of biofilm formation incubated for overnight by crystal violet staining based microtiter plate assay; assay type: functional, organism-based
PBMC [5] = experiment: Cytotoxicity against human PBMC assessed as decrease in cell viability at 10 to 40 uM incubated for overnight by LDH assay; assay type: cell-based
[6] = Binding affinity to SDS micelle assessed as blue shift with maximum emission at wavelength between 339 to 344 nm at 1 uM in TRIS buffer at pH 7.4 measured after 24 hrs by Trp emission fluorescence spectroscopy
Staphylococcus aureus [7] = experiment: Antibacterial activity against methicillin-resistant Staphylococcus aureus assessed as alteration in bacterial growth in TSB medium supplemented with 1% glucose at concentration of MIC in MHB medium measured after overnight incubation by CLSI protocol based broth dilution method; assay type: functional, organism-based
[8] = Stability of compound assessed as bovine trypsin-mediated compound hydrolysis at 10 uM incubated for 30 mins by RP-HPLC analysis; assay type: ADME, Bos taurus; conditions: cattle, read-out: Drug degradation
Staphylococcus aureus [9] = experiment: Antibacterial activity against methicillin-resistant Staphylococcus aureus assessed as bacterial growth inhibition in MHB medium measured after overnight incubation by CLSI protocol based broth dilution method; assay type: functional
PBMC [10] = experiment: Immunostimulatory activity in human PBMC assessed as induction of chemokine MCP1 production at 10 to 40 uM incubated for overnight by ELISA; assay type: functional, cell-based
Staphylococcus aureus [11] = experiment: Antibacterial activity against methicillin-resistant Staphylococcus aureus assessed as alteration in bacterial growth in TSB medium supplemented with 1% glucose up to 64 uM measured after overnight incubation by CLSI protocol based broth dilution method; assay type: functional, organism-based
Staphylococcus aureus [12] = experiment: Antibacterial activity against methicillin-resistant Staphylococcus aureus assessed as bacterial growth inhibition in TSB medium supplemented with 1% glucose measured after overnight incubation by CLSI protocol based broth dilution method; assay type: functional, organism-based
[13] = Binding affinity to DPC micelle assessed as increase in fluorescence emission intensity at maximum wavelength at 1 uM in TRIS buffer at pH 7.4 measured after 24 hrs by Trp emission fluorescence spectroscopy relative to TRIS buffer
PBMC [14] = experiment: Antiinflammatory activity against LPS-stimulated human PBMC assessed as suppression of IL1 production at 10 to 40 uM incubated for overnight in presence of Pseudomonas aeruginosa PAO1 LPS by ELISA; assay type: functional, cell-based
PBMC [15] = experiment: Proinflammatory activity in human PBMC assessed as increase in LPS-stimulated IL1 production at 40 uM incubated for overnight in presence nof Pseudomonas aeruginosa PAO1 LPS by ELISA; assay type: cell-based
[16] = Binding affinity to DPC micelle assessed as blue shift with maximum emission at wavelength of 352 nm at 1 uM in TRIS buffer at pH 7.4 measured after 24 hrs by Trp emission fluorescence spectroscopy
PBMC [17] = experiment: Cytotoxicity against human PBMC assessed as decrease in cell viability at 40 uM incubated for overnight by LDH assay relative to control; assay type: cell-based
Staphylococcus aureus [18] = experiment: Antibacterial activity against methicillin-resistant Staphylococcus aureus assessed as alteration in bacterial growth incubated for overnight by microtiter plate based spectrophotometric analysis; assay type: functional, organism-based
[19] = Binding affinity to DPC micelle assessed as blue shift with maximum emission at wavelength of 340 nm at 1 uM in TRIS buffer at pH 7.4 measured after 24 hrs by Trp emission fluorescence spectroscopy
Staphylococcus aureus [20] = experiment: Antibiofilm activity against methicillin-resistant Staphylococcus aureus assessed as inhibition of biofilm formation by measuring residual biofilm growth incubated for overnight at 10-fold dilution by crystal violet staining based microtiter plate assay relative to control; assay type: functional

Row | Compound | Activity [1] | Activity [3] | IC50 (Staphylococcus aureus [4]) [µM] | Activity (PBMC [5]) | Activity [6] | Activity (Staphylococcus aureus [7]) | metabolised at 0.5 h, 10 µM [8] [%] | MIC (Staphylococcus aureus [9]) [µM] | Activity (PBMC [10]) | Activity (Staphylococcus aureus [11]) | inhibition (Staphylococcus aureus [12]) | fold change (FC) [13] | inhibition (Staphylococcus aureus [4]) | Activity (Staphylococcus aureus [18]) | residual biofilm growth (% of control) (Staphylococcus aureus [20]) [%] | also measured
1 | CC[C@H](C)[C@H](NC(=O)[C@H](CN)NC(=O)[C@@H](NC(=O)[C@H](C)NC(=O)[C@@H](NC(=O)[C@@H](NC(=O)[C@H](CC(C)C)NC(=O)[C@H](CN)NC(=O)[C@@H](N)C(C)C)[C@@H](C)CC)C(C)C)C(C)C)C(=O)N[C@@H](Cc1c[nH]c2ccccc12)C(=O)N[C@@H](CN)C(=O)N[C@@H](CN)C(N)=O (H-V[Dap]LIVAV[Dap]IW[Dap][Dap]-NH2) | Active | inactive | 12.8 | Non-Toxic | Active | Active | 30 | 4 (≈ 5.02 µg/mL) | Active | Active | inactive | 2 to 6 |  |  |  | fold change (FC) (PBMC [2]): 4 to 8
2 | CC[C@H](C)[C@H](NC(=O)[C@H](CN)NC(=O)[C@@H](NC(=O)[C@H](CN)NC(=O)[C@@H](NC(=O)[C@@H](NC(=O)[C@H](CC(C)C)NC(=O)[C@H](CN)NC(=O)[C@@H](N)C(C)C)[C@@H](C)CC)C(C)C)C(C)C)C(=O)N[C@@H](Cc1c[nH]c2ccccc12)C(=O)N[C@@H](CN)C(=O)N[C@@H](CN)C(N)=O (H-V[Dap]LIV[Dap]V[Dap]IW[Dap][Dap]-NH2) | Active | inactive | 19.6 | Non-Toxic | Active | Active | 14 | 8 (≈ 10.2 µg/mL) | inactive | Active | inactive | 2 to 6 |  |  |  | Activity (PBMC [14]): inactive
3 | CC[C@H](C)[C@H](NC(=O)[C@H](CCCN)NC(=O)[C@@H](NC(=O)[C@H](C)NC(=O)[C@@H](NC(=O)[C@@H](NC(=O)[C@H](CC(C)C)NC(=O)[C@H](CCCN)NC(=O)[C@@H](N)C(C)C)[C@@H](C)CC)C(C)C)C(C)C)C(=O)N[C@@H](Cc1c[nH]c2ccccc12)C(=O)N[C@@H](CCCN)C(=O)N[C@@H](CCCN)C(N)=O (H-V[Orn]LIVAV[Orn]IW[Orn][Orn]-NH2) | Active | inactive | 32 | Non-Toxic | Active | Active |  | 8 (≈ 10.9 µg/mL) | Active | Active | inactive | 2 to 6 |  |  |  | Activity (PBMC [15]): Toxic
4 | CC[C@H](C)[C@H](NC(=O)[C@H](CCCN)NC(=O)[C@@H](NC(=O)[C@H](CCCN)NC(=O)[C@@H](NC(=O)[C@@H](NC(=O)[C@H](CC(C)C)NC(=O)[C@H](CCCN)NC(=O)[C@@H](N)C(C)C)[C@@H](C)CC)C(C)C)C(C)C)C(=O)N[C@@H](Cc1c[nH]c2ccccc12)C(=O)N[C@@H](CCCN)C(=O)N[C@@H](CCCN)C(N)=O (H-V[Orn]LIV[Orn]V[Orn]IW[Orn][Orn]-NH2) | Active | inactive | 32 | Non-Toxic | Active | Active | 60 | 32 (≈ 45.1 µg/mL) | Active | Active | inactive | 2 to 6 |  |  |  | Activity (PBMC [15]): Toxic; Activity [16]: Active
5 | H-VKLIVAVKIWKK-NH2 | Active | inactive | 12.7 | Non-Toxic | Active | Active | 5 | 4 | Active | Active | inactive | 2 to 6 |  |  |  | Activity (PBMC [15]): Toxic
6 | H-VKLIVKVKIWKK-NH2 | Active |  | 9.9 |  | Active | Active | 18 | 4 | Active | Active | inactive | 2 to 6 |  |  |  | fold change (FC) (PBMC [2]): 4 to 8; fold change (FC) [3]: 2.5; Activity (PBMC [17]): 40%
7 | H-VRLIVAVRIWRR-NH2 | Active |  | 4 to 6 |  | Active | Active | 60 | 4 | inactive | Active | inactive |  | Dose-dependent effect | Active | 8.5 | Activity [19]: Active
8 | H-VRLIVKVRIWRR-NH2 | Active |  | 4 to 6 | Non-Toxic | Active | Active | 60 | 4 | inactive | Active | inactive | 2 to 6 | Dose-dependent effect | Active | 6.1 | fold change (FC) [3]: 2.5; Activity (PBMC [14]): Active
9 | H-VRLIVRVRIWRR-NH2 | Active | inactive | 4 to 6 | Non-Toxic | Active | Active | 90 | 2 | Active | Active | inactive | 2 to 6 | Dose-dependent effect | Active | 9.2 | Activity (PBMC [14]): Active
10 | H-VRLRVAVRIWRR-NH2 |  |  |  |  |  |  |  |  |  |  |  |  | Dose-dependent effect | Active | 15 | 
11 | H-VRRIVAVRIWRR-NH2 |  |  |  |  |  |  |  |  |  |  |  |  | Dose-dependent effect | Active | 83.7 | 
